# Data from ChEMBL document CHEMBL1147724, “Synthesis and in vitro antileukemic activity of some new 1,3-(oxytetraethylenoxy)cyclotriphosphazene derivatives” (2006).
# The source made the active and inactive calls. The calls are words filed in the database; no cut-off is given here.
# Experiments:
# Type in all cases: functional
# MOLT-4 = assay: Antiproliferative activity against human MOLT4 cell line by MTT assay at 4 ug/ml; settings: for IC50: read-out: ID50 (the source's name)
# P388 = assay: Antiproliferative activity against mouse P388 cell line by MTT assay at 4 ug/ml; settings: for IC50: read-out: ID50 (the source's name)
# BALB/3T3 = assay: Antiproliferative activity against BALB/3T3 cell line by MTT assay at 4 ug/ml; settings: Mus musculus; for IC50: read-out: ID50 (the source's name)
# L1210 = assay: Antiproliferative activity against mouse L1210 cell line by MTT assay at 4 ug/ml; settings: for IC50: read-out: ID50 (the source's name)
# HL-60 = assay: Antiproliferative activity against human HL60 cell line by MTT assay at 4 ug/ml; settings: for IC50: read-out: ID50 (the source's name)
SMILES,IC50 (MOLT-4),IC50 (P388),IC50 (BALB/3T3),IC50 (L1210),IC50 (HL-60),ID50 (BALB/3T3),ID50 (MOLT-4),ID50 (P388),ID50 (L1210),ID50 (HL-60)
ClCC/N=C\c1ccccc1OP12=NP(Oc3ccccc3/C=N\CCCl)(=NP(Oc3ccccc3/C=N\CCCl)(Oc3ccccc3/C=N\CCCl)=N1)OCCOCCOCCOCCO2 (stereo not given),2.1 µg/mL,3.2 µg/mL,25.3 µg/mL,3.2 µg/mL,2.9 µg/mL,–,–,–,–,–
O=Cc1ccccc1OP12=NP(Oc3ccccc3C=O)(Oc3ccccc3C=O)=NP(Oc3ccc4ccccc4c3)(=N1)OCCOCCOCCOCCO2 (stereo not given),3.09 µg/mL,2.55 µg/mL,–,2.75 µg/mL,2.81 µg/mL,inactive,–,–,–,–
O=C1c2ccccc2C(=O)c2c(NCCNP34=NP(Cl)(=NP(Cl)(Cl)=N3)OCCOCCOCCOCCO4)cccc21 (stereo not given),29.6 µg/mL,32.8 µg/mL,–,52.8 µg/mL,38.3 µg/mL,inactive,–,–,–,–
O=Cc1ccccc1OP12=NP(Oc3ccccc3C=O)(=NP(Oc3ccccc3C=O)(Oc3ccccc3C=O)=N1)OCCOCCOCCOCCO2 (stereo not given),3.2 µg/mL,3.2 µg/mL,12.1 µg/mL,3.2 µg/mL,2.7 µg/mL,–,–,–,–,–
O=C1c2ccccc2C(=O)c2c(NCCNP34=NP(NCCCl)(=NP(NCCCl)(NCCCl)=N3)OCCOCCOCCOCCO4)cccc21 (stereo not given),27.2 µg/mL,19.4 µg/mL,–,29.3 µg/mL,18.9 µg/mL,inactive,–,–,–,–
O=Cc1ccccc1OP12=NP(Oc3ccccc3C=O)(Oc3ccccc3C=O)=NP(NCCNc3cccc4c3C(=O)c3ccccc3C4=O)(=N1)OCCOCCOCCOCCO2 (stereo not given),1.14 µg/mL,2.9 µg/mL,33.2 µg/mL,2.42 µg/mL,2.23 µg/mL,–,–,–,–,–
O=C1c2ccccc2C(=O)c2c(NCCNP34=NP(Oc5ccccc5/C=N\CCCl)(=NP(Oc5ccccc5/C=N\CCCl)(Oc5ccccc5/C=N\CCCl)=N3)OCCOCCOCCOCCO4)cccc21 (stereo not given),3.08 µg/mL,2.16 µg/mL,9.54 µg/mL,2.69 µg/mL,2.07 µg/mL,–,–,–,–,–
ClCCNP1(NCCCl)=NP2(NCCCl)=NP(NCCCl)(=N1)OCCOCCOCCOCCO2 (stereo not given),–,–,–,–,–,inactive,inactive,inactive,inactive,inactive
ClCC/N=C\c1ccccc1OP12=NP(Oc3ccccc3/C=N\CCCl)(Oc3ccccc3/C=N\CCCl)=NP(Oc3ccc4ccccc4c3)(=N1)OCCOCCOCCOCCO2 (stereo not given),3.11 µg/mL,2.7 µg/mL,–,2.43 µg/mL,2.89 µg/mL,inactive,–,–,–,–
